Values quoted from earlier work, collected in patent publication US12509462B2, “3-(phenylsulfonyl)-[1,2,3]triazolo[1,5A]quinazolin-5(4H)-one derivatives” (BIOVERSYS AG, priority 2018, dated 2025).

Tested on: hla, psmα and pvl
Conditions: across all four agr groups; cited from earlier work

For `CC(C)c1ccc(S(=O)(=O)c2nnn3c2nc(O)c2ccccc23)cc1` [Savirin, reference compound], the “Modulation of AgrA-regulated toxin gene transcription such as hla, psmα and pvl” value is listed as “potent modulator”.
